Measurements taken from US20080234266A1, “Squaric Acid Derivatives II” (priority 2005, published 2008).

The compounds below were run against T1, CHK1 kinase (Homo sapiens, UniProt O14757) (assay: Flashplate method (CHK1), measurement of the CHK1 kinase activity). Conditions: class symbols; 'Affinity to receptors'.
T1 construct: glutathione S-transferase (GST); made in house; host or cells: Sf21 insect cells (S. frugiperda), baculovirus
T1 sequence (O14757 1-476): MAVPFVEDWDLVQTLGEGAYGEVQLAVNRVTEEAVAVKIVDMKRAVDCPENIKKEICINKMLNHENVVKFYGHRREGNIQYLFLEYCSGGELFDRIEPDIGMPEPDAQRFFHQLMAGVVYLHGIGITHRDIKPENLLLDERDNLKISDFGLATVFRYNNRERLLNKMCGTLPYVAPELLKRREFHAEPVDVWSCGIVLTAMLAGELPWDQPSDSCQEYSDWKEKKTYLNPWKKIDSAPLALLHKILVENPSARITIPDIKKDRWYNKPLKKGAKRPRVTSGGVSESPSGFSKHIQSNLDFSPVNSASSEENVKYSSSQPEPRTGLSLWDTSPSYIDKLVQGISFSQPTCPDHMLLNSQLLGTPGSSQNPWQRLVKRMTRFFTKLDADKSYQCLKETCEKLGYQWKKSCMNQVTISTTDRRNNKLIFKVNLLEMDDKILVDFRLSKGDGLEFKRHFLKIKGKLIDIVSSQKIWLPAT
Type: biochemical
Description: CHK1 kinase is expressed for the purposes of protein production in insect cells (Sf21; S. frugiperda) and subsequent purification by affinity chromatography as fusion protein with glutathione S-transferase in a baculovirus expression vector. The cultivation, infection and digestion of the cells as well as the purification of the fusion protein by column chromatography are carried out in accordance with manufacturer-oriented generic working instructions.
The kinase activity is measured using various available measurement systems. In the scintillation proximity method (Sorg et al., J. of. Biomolecular Screening, 2002, 7, 11-19), the flashplate method or the filter binding test, the radioactive phosphorylation of a protein or peptide as substrate is measured using radioactively labelled ATP (γ^32P-ATP, (γ^33P-ATP). In the case of the presence of an inhibitory compound, a reduced radioactive signal, or none at all, can be detected. Furthermore, homogeneous time-resolved fluorescence resonance energy transfer (HTR-FRET) and fluorescence polarisation (FP) technologies are useful as assay methods (Sills et al., J. of Biomolecular Screening, 2002, 191-214).
The test plates used are 384-well streptavidin-coated Flashplates Plus® from Perkin Elmer (Cat.No. SMP410A001PK). The assay plate is equilibrated with 75 μl of assay buffer per well 30 min before commencement of the experiment. The buffer is sucked out before commencement of the experiment, and the components of the kinase reaction described below are pipetted onto the plate.
CHK1 kinase, a biotinylated substrate peptide (for example CHKtide: […]), is incubated with radioactively labelled ATP in the presence and absence of test substances at 30° Celsius and a total volume of 50 μl. The reaction is terminated using 25 μl of a 0.2 M EDTA solution. After incubation for 30 min at room temperature, the supernatants are filtered off with suction, and the wells are washed three times with 100 μl of 0.9% NaCl solution each time. The measurement of the bound radioactivity is carried out by means of a scintillation measuring instrument (Topcount NXT, Perkin-Elmer).
The full value used is the inhibitor-free kinase reaction. This should be approximately in the range 3000-4000 cpm. The pharmacological zero value used is staurosporin in a final concentration of 0.1 μM. The inhibitory values (IC50) are determined using the program RS1_MTS ( ).
Kinase reaction conditions per well:
0.15 μg of CHKtide ([…])
50 μl total volume (1-fold assay buffer reaction conditions)
Solutions used: • assay buffer:
0.1 mM Titriplex VI (EGTA
10 mM magnesium acetate 0.1% mercaptoethanol
pH=7.5 (to be set using hydrochloric acid) Bovine serum albumin (final concentration 0.1%) is not added until just before use. • stop solution:
0.2 M TitriplexIII (EDTA)
• γ^33P-ATP (Perkin-Elmer) • CHK1 kinase preparations: specific activity>50 U/mg • CHKtide solution: biotinylated peptide substrate (Biotrend) stored as stock solution (concentration 0.15 mg/ml).
For “3-(1H-benzimidazol-5-ylamino)-4-[(S)-1-(3-hydroxyphenyl)ethylamino]cyclobut-3-ene-1,2-dione [Compound A4]”, the IC50 was greater than 1 µM. In the case of “3-(3-hydroxybenzylamino)-4-(5-methyl-imidazo[1,2-a]pyridin-6-ylamino)cyclobut-3-ene-1,2-dione [Compound A56]”, the IC50 is reported as less than 1 µM. “3-(8-bromoimidazo[1,2-a]pyridin-6-ylamino)-4-(3-hydroxybenzylamino)cyclobut-3-ene-1,2-dione [Compound A60]” showed an IC50 of less than 1 µM. “3-(8-bromoimidazo[1,2-a]pyridin-6-ylamino)-4-[(R)-1-(3-methoxyphenyl)ethylamino]-cyclobut-3-ene-1,2-dione [Compound A63]” was tested, and the IC50 was greater than 1 µM. Compound “3-[3-(2-methoxyethyl)-3H-benzimidazol-5-ylamino]-4-[(R)-1-(3-methoxyphenyl)ethyl-amino]cyclobut-3-ene-1,2-dione [Compound A67]” has an IC50 greater than 1 µM. “3-[(R)-1-(3-methoxyphenyl)ethylamino]-4-(5-methylimidazo[1,2-a]pyridin-6-ylamino)-cyclobut-3-ene-1,2-dione [Compound A58]” gave an IC50 greater than 1 µM. For “3-[(R)-1-(3-methoxyphenyl)ethylamino]-4-(7-methylimidazo[1,2-a]pyridin-6-ylamino)-cyclobut-3-ene-1,2-dione [Compound A57]”, the IC50 was greater than 1 µM. For “3-[(R)-1-(3-methoxyphenyl)ethylamino]-4-(8-methylimidazo[1,2-a]pyridin-6-ylamino)-cyclobut-3-ene-1,2-dione [Compound A59]”, the IC50 was greater than 1 µM. Work on `CC(Nc1c(Nc2ccc3[nH]ncc3c2)c(=O)c1=O)c1cccc(NC(N)=O)c1` (racemic) [Compound A145, 3-(1H-indazol-5-ylamino)-4-[(R,S)-1-(3-ureidophenyl)ethylamino]cyclobut-3-ene-1,2-dione] yielded an IC50 greater than 1 µM. `O=c1c(NCc2cccc(O)c2)c(Nc2ccc3[nH]cnc3c2)c1=O` [Compound A1, 3-(1H-benzimidazol-5-ylamino)-4-(3-hydroxybenzylamino)cyclobut-3-ene-1,2-dione] showed an IC50 of less than 0.1 µM. `COc1cccc([C@@H](C)Nc2c(Nc3ccc4[nH]cnc4c3)c(=O)c2=O)c1` [Compound A2, 3-(1H-benzimidazol-5-ylamino)-4-[(R)-1-(3-methoxyphenyl)ethylamino]cyclobut-3-ene-1,2-dione] was tested, and the IC50 was less than 1 µM. With `C[C@@H](Nc1c(Nc2ccc3[nH]cnc3c2)c(=O)c1=O)c1cccc(O)c1` [Compound A3, 3-(1H-benzimidazol-5-ylamino)-4-[(R)-1-(3-hydroxyphenyl)ethylamino]cyclobut-3-ene-1,2-dione] the IC50 was less than 0.1 µM. Compound `NS(=O)(=O)c1cccc(CNc2c(Nc3ccc4[nH]cnc4c3)c(=O)c2=O)c1` [Compound A6, 3-(1H-benzimidazol-5-ylamino)-4-(3-amino-sulfonylbenzylamino)cyclobut-3-ene-1,2-dione] has an IC50 of less than 1 µM. With `O=c1c(NCc2cccc(O)c2)c(Nc2ccc3[nH]c(C(F)(F)F)nc3c2)c1=O` [Compound A10, 3-(1H-benzimidazol-2-trifluoromethyl-5-yl-amino)-4-(3-hydroxybenzylamino)cyclobut-3-ene-1,2-dione] the IC50 was greater than 1 µM. `O=c1c(NCc2cccc(O)c2)c(Nc2cc3nc[nH]c3cc2Cl)c1=O` [Compound A12, 3-(1H-benzimidazol-6-chloro-5-ylamino)-4-(3-hydroxybenzylamino)cyclobut-3-ene-1,2-dione] showed an IC50 greater than 1 µM. For `O=c1c(NCc2cccc(O)c2)c(Nc2ccc3ncsc3c2)c1=O` [Compound A14, 3-(benzothiazol-6-ylamino)-4-(3-hydroxy-benzylamino)cyclobut-3-ene-1,2-dione], the IC50 was less than 1 µM. Compound `O=c1c(NCc2cccc(O)c2)c(NCc2ccc3[nH]nnc3c2)c1=O` [Compound A15, 3-(1H-benzotriazol-5-ylmethylamino)-4-(3-hydroxybenzylamino)cyclobut-3-ene-1,2-dione] has an IC50 of less than 1 µM. `O=c1c(NCc2cccc(O)c2)c(Nc2ccc3cc[nH]c3c2)c1=O` [Compound A28, 3-(1H-indol-6-ylamino)-4-(3-hydroxybenzyl-amino)cyclobut-3-ene-1,2-dione] was tested, and the IC50 was greater than 1 µM. For `O=c1c(NCc2cccc(O)c2)c(Nc2ccc3[nH]ccc3c2)c1=O` [Compound A29, 3-(1H-indol-5-ylamino)-4-(3-hydroxybenzyl-amino)cyclobut-3-ene-1,2-dione], the IC50 was greater than 1 µM. `O=c1[nH]c2ccc(Nc3c(NCc4cccc(O)c4)c(=O)c3=O)cc2[nH]1` [Compound A30, 4-(2-oxo-2,3-dihydro-1H-benzimidazol-5-yl-amino)-3-(3-hydroxybenzylamino)cyclobut-3-ene-1,2-dione] showed an IC50 greater than 1 µM. `O=c1c(NCc2cccc(F)c2)c(Nc2ccc3[nH]cnc3c2)c1=O` [Compound A31, 3-(1H-benzimidazol-5-ylamino)-4-(3-fluoro-benzylamino)cyclobut-3-ene-1,2-dione] showed an IC50 greater than 1 µM. `NC(=O)c1c[nH]c2ccc(Nc3c(NCc4cccc(O)c4)c(=O)c3=O)cc12` [Compound A32, 3-(3-aminocarbonyl-1H-indol-5-ylamino)-4-(3-hydroxybenzylamino)cyclobut-3-ene-1,2-dione] showed an IC50 greater than 1 µM. `O=c1c(NCc2cccc(Cl)c2)c(Nc2ccc3[nH]cnc3c2)c1=O` [Compound A33, 3-(1H-benzimidazol-5-ylamino)-4-(3-chloro-benzylamino)cyclobut-3-ene-1,2-dione] gave an IC50 greater than 1 µM. With `O=c1c(NCc2cccc(-n3cccc3)c2)c(Nc2ccc3[nH]cnc3c2)c1=O` [Compound A35, 3-(1H-benzimidazol-5-ylamino)-4-(3-pyrrol-1-ylbenzylamino)cyclobut-3-ene-1,2-dione] the IC50 was greater than 1 µM. In the case of `O=c1c(NCc2cc(Br)ccc2O)c(Nc2ccc3[nH]cnc3c2)c1=O` [Compound A36, 3-(1H-benzimidazol-5-ylamino)-4-(3-bromo-6-hydroxybenzylamino)cyclobut-3-ene-1,2-dione], the IC50 is reported as greater than 1 µM. With `O=c1c(NCc2cccc(C(F)(F)F)c2)c(Nc2ccc3[nH]cnc3c2)c1=O` [Compound A37, 3-(1H-benzimidazol-5-ylamino)-4-(3-trifluoro-methylbenzylamino)cyclobut-3-ene-1,2-dione] the IC50 was greater than 1 µM. With `CN(Cc1cccc(O)c1)c1c(Nc2ccc3[nH]cnc3c2)c(=O)c1=O` [Compound A38, 3-(1H-benzimidazol-5-ylamino)-4-[(3-hydroxybenzyl)methylamino]cyclobut-3-ene-1,2-dione] the IC50 was less than 1 µM. `Cc1cc2cc(Nc3c(NCc4cccc(O)c4)c(=O)c3=O)ccc2[nH]1` [Compound A39, 3-(2-methyl-1H-indol-5-ylamino)-4-(3-hydroxybenzylamino)cyclobut-3-ene-1,2-dione] showed an IC50 greater than 1 µM. `O=c1c(NCc2cccc(O)c2)c(Nc2ccc3[nH]c(S)nc3c2)c1=O` [Compound A40, 3-(2-mercapto-1H-benzimidazol-5-ylamino)-4-(3-hydroxybenzylamino)cyclobut-3-ene-1,2-dione] was tested, and the IC50 was greater than 1 µM. Compound `CC(C)(C)NS(=O)(=O)c1cccc(CNc2c(Nc3ccc4[nH]cnc4c3)c(=O)c2=O)c1` [Compound A41, 3-(1H-benzimidazol-5-ylamino)-4-[3-(tert-butylaminosulfonyl)benzylamino]cyclobut-3-ene-1,2-dione] has an IC50 greater than 1 µM. `O=c1c(NCc2cccc(O)c2)c(Nc2ccc3c(c2)NCC3)c1=O` [Compound A42, 3-(2,3-dihydro-1 H-indol-6-ylamino)-4-(3-hydroxybenzylamino)cyclobut-3-ene-1,2-dione] was tested, and the IC50 was greater than 1 µM.
